From patent publication US8486900B2, “Method for preparing a Centella asiatica extract rich in madecassoside and in terminoloside” (Bayer Consumer Care AG, priority 2002, dated 2013)

Legend:
[1] = tested on: human keratinocytes, strain K02-1H4; assay: Cytotoxicity, Neutral Red assay on human keratinocytes strain K02-1H4; assay type: cell-based; details: for Viability (72 h), % of control: Example 12, K02-1H4, 72 h
Procedure: In addition, added to the cytotoxicity study was an assay on human keratinocytes, strain K02-1H4, in order to confirm that the concentrations were nontoxic on the target cells.
[…] […] The cell viability was determined by means of a Neutral Red assay.
Added to the cytotoxicity study was an assay on human keratinocytes (strain K02-1H4) in order to confirm the nontoxicity of the concentrations on the “target” cells. Table 24 below groups together all the results (cell viability as % of control).

IL-1α = assay: IFN-γ-induced intracellular IL-1α production by normal human keratinocytes; assay type: cell-based; details: for IL-1α (intracellular): K02-1H6, IFN-γ 1000 U/ml, 48 h + 24 h
Procedure: (§1) In order to evaluate the anti-inflammatory activity of terminoloside, of madecassoside and of the mixture of heterosides, we studied the modulatory effects of these three active agents with respect to the production and release of proinflammatory epidermal cytokines (IL-1α, IL-8, PGE-2) by human keratinocytes in culture, subjected to an irritative stress induced either with interferon-gamma (IFN-γ) or with PMA. Human keratinocytes were isolated from human skin. The cells were cultured in serum-free KGM medium (Keratinocyte Growth Medium, sold by the company Clonetics®), according to the usual techniques set up in the laboratory, at 37° C. in a humid air-CO2 (95%-5%) atmosphere. The cells were seeded into 25 cm^2 flasks and passaged regularly before reaching confluency. The principle of the assay is based on evaluating the production of proinflammatory cytokines by human keratinocytes, in response to an irritative stress. The method is based on measuring the intracellular amount of IL-1α and of the amounts of IL-8 and of PGE-2 released into the extracellular medium by keratinocytes cultured in the absence and in the presence of the products being studied, and stimulated even with interferon-gamma (IFN-γ) or with PMA (phorbol-12-myristate-13-acetate).
(§2) The study was carried out on keratinocytes isolated from foreskin of young children (strain K02-1H6).
(§3) 1. Treatment of the cells for 48 h with the product being studied before induction of the irritative stress; 2. induction of the irritative stress: IFN-γ (1000 U/ml); 3. incubation of the “activated” cells, for 24 h, in the presence of the product being studied; 4. assay: IL-8 (extracellular) and IL-1α (intracellular). Cellular protein assay.
Tables 34 to 36 below group together the intracellular amounts of IL-1α after activation of the cells (+IFN-γ), and the basal amount (−IFN-γ). The IFN-γ-induced production of IL-1α and the anti-inflammatory activity (AIA) were calculated for each concentration according to: Il-1α production=IL-1α(+IFN)−IL-1α(−IFN) AIA=[(IL-1α production(control cells)−IL-1α production(treated cells)/IL-1α production(control cells)]×100

PGE-2 = assay: PMA-induced release of PGE-2 by human keratinocytes; assay type: cell-based; details: for PGE-2 (extracellular): Example 12, K02-1H6, PMA 10 ng/ml, 48 h + 24 h
Procedure: The principle of the assay is based on evaluating the production of pro-inflammatory cytokines by human keratinocytes in response to an irritative stress. […]
Given the lack of effect of IFN-γ on the production and release of PGE-2, the anti-inflammatory effect of the active agents was studied on normal human keratinocytes (strain K02-1H6) stimulated with PMA. Each active agent was tested at 4 concentrations:
1. Treatment of the cells, for 48 h, with the product being studied before induction of the irritative stress.
2. Induction of the irritative stress: PMA (10 ng/ml).
3. Incubation of the “activated” cells, for 24 h, in the presence of the product being studied.
4. Assay of PGE-2 (extracellular) and assay of cellular proteins.
Tables 37 to 39 below group together the amounts of PGE-2 (pg/μg prot.) obtained after activation of the cells (+PMA), and also the basal amounts (−PMA). The PMA-induced production of PGE-2 and the anti-inflammatory activity (AIA) were calculated, for each concentration, according to: PGE-2 production=[(PGE-2(+PMA)−PGE-2(−PMA)] AIA=[(PGE-2 production(control cells)−PGE-2 production(treated cells))/PGE-2 production(control cells)]×100

IL-8 = assay: IFN-γ-induced release of IL-8 by normal human keratinocytes; assay type: cell-based; details: for IL-8: Example 12, K02-1H6, IFN-γ 1000 U/ml, 48 h + 24 h
Procedure: as §1, §2, §3
Tables 32 to 34 below group together the amounts of IL-8 obtained after activation of the cells (+IFN-γ), and also the basal amounts (−IFN-γ). The IFN-γ-induced production of IL-8 and the anti-inflammatory activity (AIA) were calculated, for each concentration of active agent, according to: AIA=[(IL-8(control cells+IFN)−[…]/IL-8(control cells+IFN)]×100

solubility (Solubility): water-soluble
Structure (SMILES): CC1OC(O[C@@H]2C(CO)OC(OCC3OC(OC(=O)C4CC(C)(C)CC5C6=CCC7C(CC(O)C8C(C)(CO)C(O)C(O)CC78C)C6(C)CCC45)[C@@H](O)C(O)[C@@H]3O)[C@@H](O)C2O)[C@@H](O)C(O)[C@H]1O (stereo partly drawn) [Terminoloside, 1-[O-α-L-rhamnopyranosyl-(1-4)-O-β-glucopyranosol-(1-6)]-O-β-D-glucopyranose 2α,3β,6β,23-tetrahydroxyolea-12-en-28-oate]
Viability (72 h), % of control ([1]; 0.25 mg/ml): 101%
Viability (72 h), % of control ([1]; 0.5 mg/ml): 103%
Viability (72 h), % of control ([1]; 0.75 mg/ml): 103%
Viability (72 h), % of control ([1]; 1.0 mg/ml): 102%
Viability (72 h), % of control ([1]; 2.5 mg/ml): 99%
Viability (72 h), % of control ([1]; 5 mg/ml): 96%
Viability (72 h), % of control ([1]; 10 mg/ml): 69%
nontoxic concentrations ([1]; K02-1H4, 72 h of incubation): less than or equal to 2.5 mg/ml
IL-1α production (+IFN minus −IFN) (IL-1α; 0.1 mg/ml): 6.07
IL-1α production (+IFN minus −IFN) (IL-1α; 0.25 mg/ml): 5.37
IL-1α production (+IFN minus −IFN) (IL-1α; 0.5 mg/ml): 4.60
IL-1α production (+IFN minus −IFN) (IL-1α; 1 mg/ml): 2.31
inhibition at 100 µg/mL (IL-1α; Homo sapiens, Keratinocyte, IFN-γ 1000 U/ml, 0.1 mg/ml, read-out: Anti-inflammatory activity (%), IL-1α): 17%
inhibition at 250 µg/mL (IL-1α; Homo sapiens, Keratinocyte, IFN-γ 1000 U/ml, 0.25 mg/ml, read-out: Anti-inflammatory activity (%), IL-1α): 27%
inhibition at 500 µg/mL (IL-1α; Homo sapiens, Keratinocyte, IFN-γ 1000 U/ml, 0.5 mg/ml, read-out: Anti-inflammatory activity (%), IL-1α): 37%
inhibition at 1000 µg/mL (IL-1α; Homo sapiens, Keratinocyte, IFN-γ 1000 U/ml, 1 mg/ml, read-out: Anti-inflammatory activity (%), IL-1α): 68%
IL-1α (intracellular) (IL-1α; 0.1 mg/ml): 8.78 pg/μg prot
IL-1α (intracellular) (IL-1α; 0.25 mg/ml): 8.08 pg/μg prot
IL-1α (intracellular) (IL-1α; 0.5 mg/ml): 7.31 pg/μg prot
IL-1α (intracellular) (IL-1α; 1 mg/ml): 5.02 pg/μg prot
PGE-2 production (+PMA minus −PMA) (PGE-2; Example 12, 0.1 mg/ml): 494.2
PGE-2 production (+PMA minus −PMA) (PGE-2; Example 12, 0.25 mg/ml): 441.0
PGE-2 production (+PMA minus −PMA) (PGE-2; Example 12, 0.5 mg/ml): 279.9
PGE-2 production (+PMA minus −PMA) (PGE-2; Example 12, 1 mg/ml): 115.2
PGE-2 (extracellular) (PGE-2; 0.1 mg/ml): 660.0 pg/μg prot
PGE-2 (extracellular) (PGE-2; 0.25 mg/ml): 606.80 pg/μg prot
PGE-2 (extracellular) (PGE-2; 0.5 mg/ml): 445.7 pg/μg prot
PGE-2 (extracellular) (PGE-2; 1 mg/ml): 321.0 pg/μg prot
Anti-inflammatory activity (%), PGE-2 (PGE-2; Example 12, PMA 10 ng/ml, 1 mg/ml): 68.6%
inhibition at 100 µg/mL (PGE-2; Homo sapiens, Keratinocyte, Example 12, PMA 10 ng/ml, 0.1 mg/ml, read-out: Anti-inflammatory activity (%), PGE-2): 0%
inhibition at 250 µg/mL (PGE-2; Homo sapiens, Keratinocyte, Example 12, PMA 10 ng/ml, 0.25 mg/ml, read-out: Anti-inflammatory activity (%), PGE-2): 10.8%
inhibition at 500 µg/mL (PGE-2; Homo sapiens, Keratinocyte, Example 12, PMA 10 ng/ml, 0.5 mg/ml, read-out: Anti-inflammatory activity (%), PGE-2): 43.4%
inhibition at 1000 µg/mL (PGE-2; Homo sapiens, Keratinocyte, Example 12, PMA 10 ng/ml, 1 mg/ml, read-out: Anti-inflammatory activity (%), PGE-2): 69%
IL-8 (IL-8; 0.1 mg/ml): 0.862 pg/μg prot
IL-8 (IL-8; 0.25 mg/ml): 0.762 pg/μg prot
IL-8 (IL-8; 0.5 mg/ml): 0.708 pg/μg prot
IL-8 (IL-8; 1 mg/ml): 0.492 pg/μg prot
inhibition at 100 µg/mL (IL-8; Homo sapiens, Keratinocyte, Example 12, IFN-γ 1000 U/ml, 0.1 mg/ml, read-out: Anti-inflammatory activity (%), IL-8): 0%
inhibition at 250 µg/mL (IL-8; Homo sapiens, Keratinocyte, Example 12, IFN-γ 1000 U/ml, 0.25 mg/ml, read-out: Anti-inflammatory activity (%), IL-8): 9%
inhibition at 500 µg/mL (IL-8; Homo sapiens, Keratinocyte, Example 12, IFN-γ 1000 U/ml, 0.5 mg/ml, read-out: Anti-inflammatory activity (%), IL-8): 15%
inhibition at 1000 µg/mL (IL-8; Homo sapiens, Keratinocyte, Example 12, IFN-γ 1000 U/ml, 1 mg/ml, read-out: Anti-inflammatory activity (%), IL-8): 42%
